The structures appear in SMILES notation. Like-named read-outs stand apart in the source and are kept apart here.

Data set [1] concerns Hs578T breast cancer cell line. Briefly: Antiproliferative activity in Hs578T cells. The data set is classed as cell-based. Particulars: Homo sapiens, Hs-578T.
The subject of a further data set is Hs578Ts(i)8 cells. Briefly: Antiproliferative activity in invasive Hs578Ts(i)8 cells. It is filed as cell-based.
Data set [2] relates to colchicine-binding site of tubulin. Kind of data set: Colchicine-binding site assay (EBI cross-linking, Western blot) in MCF-7 cells. Particulars: 10 μM for 2 h, then EBI 100 μM for 1.5 h. The data set is classed as cell-based, human. How it is done:
MCF-7 cells were seeded at a density of 5 × 10^4 cells/well in 6-well plates and incubated overnight. Cells were treated with vehicle control [ethanol (0.1% v/v)] or compound 7s (10 μM) for 2 h. After this time, selected wells were treated with N,N′-ethylene-bis(iodoacetamide)(EBI) (100 μM) (Santa Cruz Biotechnology Inc. 10410 Finnell Street, Dallas, Texas, USA) for 1.5 h. Following treatment, cells were twice washed with ice-cold PBS and lysed by addition of Laemmli buffer. Samples were separated by SDS-PAGE, trasnsferred to polyvinylidene difluoride membranes and probed with β-tubulin antibodies (Sigma-Aldrich, 2033 Westport Center Dr, St. Louis, MO, USA).
(In western blotting, separated proteins are transferred to a membrane and probed.)

For data set [3], the system named is microtubule network of MCF-7 cells. Briefly: Immunofluorescence microscopy. Particulars: 100 nM, 16 h. It is filed as cell-based, human. How it is done:
Confocal microscopy was used to study the effects of drug treatment on MCF-7 cytoskeleton. For immunofluorescence, MCF-7 cells were seeded at 1 × 10^5 cells/mL on eight chamber glass slides (BD Biosciences, 2350 Qume Dr, San Jose, CA, USA). Cells were either untreated or treated with vehicle [1% ethanol (v/v)], paclitaxel (1 μM), combretastatin A-4 (100 nM) or compound 7s (100 nM) for 16 h. Following treatment cells were gently washed in PBS, fixed for 20 min with 4% paraformaldehyde in PBS and permeabilised in 0.5% Triton X-100. Following washes in PBS containing 0.1% Tween (PBST), cells were blocked in 5% bovine serum albumin diluted in PBST. Cells were then incubated with mouse monoclonal anti-α-tubulin−FITC antibody (clone DM1A) (Sigma-Aldrich, 2033 Westport Center Dr, St. Louis, MO, USA) (1:100) for 2 h at room temperature. Following washes in PBST, cells were incubated with Alexa Fluor 488 dye (1:450) for 1 h at room temperature. Following washes in PBST, the cells were mounted in Ultra Cruz Mounting Media (Santa Cruz Biotechnology Inc., 10410 Finnell Street, Dallas, TX, USA) containing 4,6-diamino-2-phenolindol dihydrochloride (DAPI). Images were captured by Leica SP8 confocal microscopy with Leica application suite X software (Leica Microsystems CMS GmbH Am Friedensplatz 3 D-68165 Mannheim, Germany). All images in each experiment were collected on the same day using identical parameters. Experiments were performed on three independent occasions.

A further data set deals with EKVX. Briefly: NCI60 screen (SRB), Non-Small Cell Lung Cancer. The data set is classed as cell-based. Particulars: Homo sapiens.
The next data set concerns NCI-H226. Briefly: NCI60 screen (SRB), Non-Small Cell Lung Cancer. It is filed as cell-based. Particulars: Homo sapiens.
The test system of a further data set is NCI-H460. Kind of data set: NCI60 screen (SRB), Non-Small Cell Lung Cancer. The data set is classed as cell-based. Particulars: Homo sapiens.
A further data set deals with NCI-H552. Briefly: NCI60 screen (SRB), Non-Small Cell Lung Cancer. The data set is classed as cell-based.
A further data set has as its system HEK-293T cells. Briefly: Cytotoxicity in non-tumourigenic HEK-293T cells. The data set is classed as cell-based, human.
A further data set relates to HOP-92. Briefly: NCI60 screen (SRB), Non-Small Cell Lung Cancer. The data set is classed as cell-based. Particulars: Homo sapiens.
Data set [4] can be described thus: Whole blood stability study. The data set is classed as in vitro ADME. Particulars: 37 °C.

With `COc1ccc(/C=C\c2cc(OC)c(OC)c(OC)c2)cc1O` [CA-4, Combretastatin A-4, reference compound], the IC50 (in general, the concentration that gives 50% inhibition) in [1] (triple-negative Hs578T cells, read-out: IC50) was determined as 8 nM; in the data set on Hs578Ts(i)8 cells (invasive Hs578Ts(i)8 cells, read-out: IC50), 20 nM. The β-tubulin-EBI adduct formation entry in data set [2] is reported as “EBI adduct formation is inhibited”. In addition, the “effect on microtubule network” value in data set [3] is on record as “complete loss of microtubule formation”.
Turning to `C=CC1C(=O)N(c2cc(OC)c(OC)c(OC)c2)C1c1ccc(OC)cc1` (centres unmarked) [Compound 7h, 4-(4-Methoxyphenyl)-1-(3,4,5-trimethoxyphenyl)-3-vinylazetidin-2-one], the IC50 in data set [1] worked out at 31 nM; in the data set with Hs578Ts(i)8 cells, 76 nM. Also, the GI50 (commonly the concentration that inhibits growth by half) with EKVX came out at 58.3 nM; with NCI-H226 it was 33.9 nM; in the data set on NCI-H460 it was 36 nM; in the data set on NCI-H552, 20.6 nM.
`C=CC1C(=O)N(c2cc(OC)c(OC)c(OC)c2)C1c1ccc(OC)c(O)c1` (centres unmarked) [Compound 7s, 4-[3-Hydroxy-4-methoxyphenyl]-1-(3,4,5-trimethoxyphenyl)-3-vinylazetidin-2-one]: the “cytotoxicity against non-tumorigenic HEK-293T cells” value in the data set on HEK-293T cells is reported as “minimal cytotoxicity”. For the same compound, the IC50 in the data set with HEK-293T cells (Homo sapiens, non-tumourigenic HEK-293T cells) is over 5000 nM. For the same compound, the β-tubulin-EBI adduct formation entry in data set [2] is reported as “EBI adduct formation is inhibited”. In addition, the “effect on microtubule network” value in data set [3] is reported as “complete loss of microtubule formation”.
As to `C=CC1C(=O)N(c2cc(OC)c(OC)c(OC)c2)C1c1ccc(OC)c(N)c1` (centres unmarked) [Compound 7t, 4-(3-Amino-4-methoxyphenyl)-1-(3,4,5-trimethoxyphenyl)-3-vinylazetidin-2-one], the GI50 was 39.3 nM with HOP-92, 38.7 nM in the data set with NCI-H226, 35.5 nM in the data set on NCI-H460 and under 10 nM with NCI-H552.
Turning to `C=CC1C(=O)N(c2cc(OC)c(OC)c(OC)c2)C1c1ccc(OC)c(OP(=O)(O)O)c1` (centres unmarked) [Compound 17b, 2-Methoxy-5-(1-(3,4,5-trimethoxyphenyl)-4-oxo-3-vinylazetidin-2-yl)phenyl dihydrogen phosphate], in data set [4], the “remaining after 6 h” value came to 62%.
On to `CCC1C(=O)N(c2cc(OC)c(OC)c(OC)c2)C1c1ccc(OC)c(OP(=O)(O)O)c1` (centres unmarked) [Compound 17c, 5-(3-Ethyl-1-(3,4,5-trimethoxyphenyl)-4-oxoazetidin-2-yl)-2-methoxyphenyl dihydrogen phosphate], for which the “remaining after 6 h” value in data set [4] was 34%.
